In ChEMBL document CHEMBL3885881, “DrugMatrix”:

Species: Rattus norvegicus
Experiment: DrugMatrix - Regimen: Daily Repeat
Type: toxicity, organism-based, Sprague-Dawley
Set-up: regimen Daily Repeat, gender Male, age 6-8 weeks
Conditions: in vivo, ip, 0 mg/kg, route intraperitoneal, dose level Control, […]; for ABSOLUTE BASOPHIL / ABSOLUTE EOSINOPHIL / ABSOLUTE LYMPHOCYTE / ABSOLUTE MONOCYTE / ABSOLUTE SEGMENTED NEUTROPHIL / BASOPHIL / EOSINOPHIL / ERYTHROCYTE COUNT / HEMATOCRIT / HEMOGLOBIN / LEUKOCYTE COUNT / LYMPHOCYTE / MEAN CORPUSCULAR HEMOGLOBIN / MEAN CORPUSCULAR HEMOGLOBIN CONCENTRATION / MEAN CORPUSCULAR VOLUME / MONOCYTE / NEUTROPHIL / NUCLEATED RED BLOOD CELLS / PLATELET COUNT: tissue Blood; for ALANINE AMINOTRANSFERASE / ALBUMIN / ALKALINE PHOSPHATASE / ASPARTATE AMINOTRANSFERASE / BLOOD UREA NITROGEN / CARBON DIOXIDE / CHLORIDE / CHOLESTEROL / CREATININE / GLUCOSE / LACTATE DEHYDROGENASE / LIPASE / PHOSPHORUS / POTASSIUM / SODIUM / TOTAL BILIRUBIN / TOTAL PROTEIN / URIC ACID: tissue Plasma

With `ClC(Cl)=C(Cl)C(Cl)=C(Cl)Cl` [HEXACHLOROBUTADIENE] the “ABSOLUTE BASOPHIL” value (72 h, time 3 day) was 0 CELLS/uL, the “ABSOLUTE EOSINOPHIL” value (72 h, time 3 day) was 135.5 CELLS/uL and the “ABSOLUTE LYMPHOCYTE” value (72 h, time 3 day) was 9030.67 CELLS/uL. The “ABSOLUTE MONOCYTE” value (72 h, time 3 day) was 286.5 CELLS/uL, the “ABSOLUTE SEGMENTED NEUTROPHIL” value (72 h, time 3 day) was 1330.67 CELLS/uL and the BASOPHIL (72 h, time 3 day) was 0%. The EOSINOPHIL (72 h, time 3 day) was 1.17%, the “ERYTHROCYTE COUNT” value (72 h, time 3 day) was 5.54 x10E6/uL and the HEMATOCRIT (72 h, time 3 day) was 35.2%. The HEMOGLOBIN (72 h, time 3 day) was 12.65 G/DL, the “LEUKOCYTE COUNT” value (72 h, time 3 day) was 10.78 x10E3/uL and the LYMPHOCYTE (72 h, time 3 day) was 83.83%. The “MEAN CORPUSCULAR HEMOGLOBIN” value (72 h, time 3 day) was 22.87 pg, the “MEAN CORPUSCULAR HEMOGLOBIN CONCENTRATION” value (72 h, time 3 day) was 35.98 G/DL and the “MEAN CORPUSCULAR VOLUME” value (72 h, time 3 day) was 63.7 fL. The MONOCYTE (72 h, time 3 day) was 2.5%, the NEUTROPHIL (72 h, time 3 day) was 12.5% and the “NUCLEATED RED BLOOD CELLS” value (72 h, time 3 day) was 0 /100WBC. For the same compound, the “PLATELET COUNT” value (72 h, time 3 day) was 853.5 x10E3/uL, the “ALANINE AMINOTRANSFERASE” value (72 h, time 3 day) was 45.83 u/L and the ALBUMIN (72 h, time 3 day) was 4.22 G/DL. The “ALKALINE PHOSPHATASE” value (72 h, time 3 day) was 344.5 u/L, the “ASPARTATE AMINOTRANSFERASE” value (72 h, time 3 day) was 85.33 u/L and the “BLOOD UREA NITROGEN” value (72 h, time 3 day) was 16.17 mg/dL. For the same compound, the “CARBON DIOXIDE” value (72 h, time 3 day) was 33.33 mmol/L, the CHLORIDE (72 h, time 3 day) was 101.33 MEQ/L and the CHOLESTEROL (72 h, time 3 day) was 73.33 mg/dL. For the same compound, the CREATININE (72 h, time 3 day) was 0.19 mg/dL, the GLUCOSE (72 h, time 3 day) was 157.67 mg/dL and the “LACTATE DEHYDROGENASE” value (72 h, time 3 day) was 160.33 u/L. It also gave an LIPASE (72 h, time 3 day) of 9.83 u/L, a PHOSPHORUS (72 h, time 3 day) of 11.4 mg/dL and a POTASSIUM (72 h, time 3 day) of 6.1 MEQ/L. The SODIUM (72 h, time 3 day) was 146.25 MEQ/L, the “TOTAL BILIRUBIN” value (72 h, time 3 day) was 0.17 mg/dL and the “TOTAL PROTEIN” value (72 h, time 3 day) was 6.3 G/DL. The “URIC ACID” value (72 h, time 3 day) was 1.28 mg/dL, the “ABSOLUTE BASOPHIL” value (120 h, time 5 day) was 0 CELLS/uL and the “ABSOLUTE EOSINOPHIL” value (120 h, time 5 day) was 134 CELLS/uL. The “ABSOLUTE LYMPHOCYTE” value (120 h, time 5 day) was 9272.17 CELLS/uL, the “ABSOLUTE MONOCYTE” value (120 h, time 5 day) was 286 CELLS/uL and the “ABSOLUTE SEGMENTED NEUTROPHIL” value (120 h, time 5 day) was 1357.83 CELLS/uL. For the same compound, the BASOPHIL (120 h, time 5 day) was 0%, the EOSINOPHIL (120 h, time 5 day) was 1.17% and the “ERYTHROCYTE COUNT” value (120 h, time 5 day) was 5.83 x10E6/uL. The HEMATOCRIT (120 h, time 5 day) was 36.17%, the HEMOGLOBIN (120 h, time 5 day) was 13.1 G/DL and the “LEUKOCYTE COUNT” value (120 h, time 5 day) was 11.05 x10E3/uL. The LYMPHOCYTE (120 h, time 5 day) was 83.83%, the “MEAN CORPUSCULAR HEMOGLOBIN” value (120 h, time 5 day) was 22.5 pg and the “MEAN CORPUSCULAR HEMOGLOBIN CONCENTRATION” value (120 h, time 5 day) was 36.25 G/DL. The “MEAN CORPUSCULAR VOLUME” value (120 h, time 5 day) was 62 fL, the MONOCYTE (120 h, time 5 day) was 2.67% and the NEUTROPHIL (120 h, time 5 day) was 12.33%. For the same compound, the “NUCLEATED RED BLOOD CELLS” value (120 h, time 5 day) was 0 /100WBC, the “PLATELET COUNT” value (120 h, time 5 day) was 806.67 x10E3/uL and the “ALANINE AMINOTRANSFERASE” value (120 h, time 5 day) was 50.83 u/L. The ALBUMIN (120 h, time 5 day) was 4.13 G/DL, the “ALKALINE PHOSPHATASE” value (120 h, time 5 day) was 358.17 u/L and the “ASPARTATE AMINOTRANSFERASE” value (120 h, time 5 day) was 148.83 u/L. The “BLOOD UREA NITROGEN” value (120 h, time 5 day) was 13.83 mg/dL, the “CARBON DIOXIDE” value (120 h, time 5 day) was 35.83 mmol/L and the CHLORIDE (120 h, time 5 day) was 99.33 MEQ/L. For the same compound, the CHOLESTEROL (120 h, time 5 day) was 80.5 mg/dL, the CREATININE (120 h, time 5 day) was 0.19 mg/dL and the GLUCOSE (120 h, time 5 day) was 156.33 mg/dL. For the same compound, the “LACTATE DEHYDROGENASE” value (120 h, time 5 day) was 238.17 u/L, the LIPASE (120 h, time 5 day) was 9.17 u/L and the PHOSPHORUS (120 h, time 5 day) was 12.53 mg/dL. The POTASSIUM (120 h, time 5 day) was 6.34 MEQ/L, the SODIUM (120 h, time 5 day) was 145.15 MEQ/L and the “TOTAL BILIRUBIN” value (120 h, time 5 day) was 0.18 mg/dL. The “TOTAL PROTEIN” value (120 h, time 5 day) was 6.07 G/DL, the “URIC ACID” value (120 h, time 5 day) was 1.3 mg/dL and the “ABSOLUTE BASOPHIL” value (time 14 day) was 0 CELLS/uL. The “ABSOLUTE EOSINOPHIL” value (time 14 day) was 56.5 CELLS/uL, the “ABSOLUTE LYMPHOCYTE” value (time 14 day) was 12701 CELLS/uL and the “ABSOLUTE MONOCYTE” value (time 14 day) was 330.33 CELLS/uL. For the same compound, the “ABSOLUTE SEGMENTED NEUTROPHIL” value (time 14 day) was 2428.83 CELLS/uL, the BASOPHIL (time 14 day) was 0% and the EOSINOPHIL (time 14 day) was 0.33%. The “ERYTHROCYTE COUNT” value (time 14 day) was 6.18 x10E6/uL, the HEMATOCRIT (time 14 day) was 36.42% and the HEMOGLOBIN (time 14 day) was 13.22 G/DL. For the same compound, the “LEUKOCYTE COUNT” value (time 14 day) was 15.52 x10E3/uL, the LYMPHOCYTE (time 14 day) was 82.5% and the “MEAN CORPUSCULAR HEMOGLOBIN” value (time 14 day) was 21.38 pg. The “MEAN CORPUSCULAR HEMOGLOBIN CONCENTRATION” value (time 14 day) was 36.32 G/DL, the “MEAN CORPUSCULAR VOLUME” value (time 14 day) was 58.92 fL and the MONOCYTE (time 14 day) was 2.17%. The NEUTROPHIL (time 14 day) was 15%, the “NUCLEATED RED BLOOD CELLS” value (time 14 day) was 0 /100WBC and the “PLATELET COUNT” value (time 14 day) was 999 x10E3/uL. The “ALANINE AMINOTRANSFERASE” value (time 14 day) was 39.17 u/L, the ALBUMIN (time 14 day) was 4.05 G/DL and the “ALKALINE PHOSPHATASE” value (time 14 day) was 275.17 u/L. For the same compound, the “ASPARTATE AMINOTRANSFERASE” value (time 14 day) was 84.5 u/L, the “BLOOD UREA NITROGEN” value (time 14 day) was 12 mg/dL and the “CARBON DIOXIDE” value (time 14 day) was 29.5 mmol/L. For the same compound, the CHLORIDE (time 14 day) was 101 MEQ/L, the CHOLESTEROL (time 14 day) was 73.83 mg/dL and the CREATININE (time 14 day) was 0.19 mg/dL. The GLUCOSE (time 14 day) was 146.5 mg/dL, the “LACTATE DEHYDROGENASE” value (time 14 day) was 285.67 u/L and the LIPASE (time 14 day) was 9 u/L. For the same compound, the PHOSPHORUS (time 14 day) was 11.67 mg/dL, the POTASSIUM (time 14 day) was 6.82 MEQ/L and the SODIUM (time 14 day) was 143.57 MEQ/L. For the same compound, the “TOTAL BILIRUBIN” value (time 14 day) was 0.13 mg/dL, the “TOTAL PROTEIN” value (time 14 day) was 6.23 G/DL and the “URIC ACID” value (time 14 day) was 1.75 mg/dL.
